In patent publication US7501410B2, “Methods of inhibiting BTK and SYK protein kinases” (Roche Palo Alto LLC, priority 2006, dated 2009):

Key:
Ramos cells = assay: Inhibition of B-cell activation, B cell FLIPR assay in Ramos cells; type: cell-based; settings: Homo sapiens, anti-IgM stimulated intracellular calcium increase
From the text: Inhibition of B-cell Activation—B Cell FLIPR Assay in Ramos Cells
The B cell FLIPR assay is a cell based functional method of determining the effect of potential inhibitors of the intracellular calcium increase from stimulation by an anti-IgM antibody. Ramos cells (human Burkitt's lymphoma cell line. ATCC-No. CRL-1596) were cultivated in Growth Media (described below). One day prior to assay, Ramos cells were resuspended in fresh growth media (same as above) and set at a concentration of 0.5×10^6/mL in tissue culture flasks. On day of assay, cells were counted and set at a concentration of 1×10^6/mL in growth media supplemented with 1 μM FLUO-3 AM(TefLabs Cat-No. 0116, prepared in anhydrous DMSO and 10% Pluronic acid) in a tissue culture flask, and incubated at 37° C. (4% CO2) for 1 h. To remove extracellular dye, cells were collected by centrifugation (5 min, 1000 rpm), resuspended in FLIPR buffer (described below) at 1×10^6 cells/mL and then dispensed into 96-well poly-D-lysine coated black/clear plates (BD Cat-No. 356692) at 1×10^5 cells per well. Test compounds at seven concentrations ranging from 100 μM to 0.03 μM were added, and allowed to incubate with cells for 30 min at RT. Ramos cell Ca^2+ signaling was stimulated by the addition of 10 μg/mL anti-IgM (Southern Biotech, Cat-No. 2020-01) and measured on a FLIPR (Molecular Devices, captures images of 96 well plates using a CCD camera with an argon laser at 480 nm excitation).
Growth Medium: RPMI 1640 medium with L-glutamine (Invitrogen, Cat-No. 61870-010), 10% Fetal Bovine Serum (FBS, Summit Biotechnology Cat-No. FP-100-05); 1 mM Sodium Pyruvate (Invitrogen Cat. No. 11360-070).
FLIPR buffer: HBSS (Invitrogen, Cat-No. 141175-079),2 mM CaCl2 (Sigma Cat-No. C-4901), HEPES (Invitrogen, Cat-No. 15630-080), 2.5 mM Probenecid (Sigma, Cat-No. P-8761), 0.1% BSA (Sigma, Cat-No. A-7906), 11 mM Glucose (Sigma, Cat-No. G-7528).
In order to achieve the highest final assay concentration of 100 μM, 24 μL of 10 mM compound stock solution (made in DMSO) is added directly to 576 μL of FLIPR buffer. The test compounds are diluted in FLIPR Buffer (using Biomek 2000 robotic pipettor) resulting in the following dilution scheme: vehicle, 1.00×10^−4 M, 1.00×10^−5, 3.16×10^−6, 1.00×10^−6, 3.16×10^−7, 1.00×10^−7, 3.16×10^−8.
Intracellular increases in calcium were reported using a max-min statistic (subtracting the resting baseline from the peak caused by addition of the stimulatory antibody using a Molecular Devices FLIPR control and statistic exporting software. The IC50 was determined using a non-linear curve fit (GraphPad Prism software). Representative results are in Table 1.

[1] = target: T1, Bruton's Tyrosine Kinase (Btk) (Homo sapiens, UniProt Q06187); assay: Determination of IC50 of Bruton's Tyrosine Kinase (Btk) inhibition, 33P filtration assay; type: biochemical; settings: His-tagged full-length Btk, 100 μM ATP
T1 construct: 5-10 nM Btk enzyme (His-tagged, full-length); His tag
From the text: Determination of IC50 of Bruton's Tyrosine Kinase (Btk) Inhibition
The assay is a capture of radioactive ^33P phosphorylated product through filtration. The interactions of Btk, biotinylated SH2 peptide substrate (Src homology), and ATP lead to phosphorylation of the peptide substrate. Biotinylated product is bound streptavidin sepharose beads. All bound, radiolabeled products are detected by scintillation counter.
Plates assayed are 96-well polypropylene (Greiner) and 96-well 1.2 μm hydrophilic PVDF filter plates (Millipore). Concentrations reported here are final assay concentrations: 10-100 μM compounds in DMSO (Burdick and Jackson), 5-10 nM Btk enzyme (His-tagged, full-length), 30 μM peptide substrate (Biotin-Aca-[…]-NH2), 100 μM ATP (Sigma), 8 mM imidazole (Sigma, pH 7.2), 8 mM glycerol-2-phosphate (Sigma), 200 μM EGTA (Roche Diagnostics), 1 mM MnCl2 (Sigma), 20 mM MgCl2 (Sigma), 0.1 mg/ml BSA (Sigma), 2 mM DTT (Sigma), 1 μCi ^33P ATP (Amersham), 20% streptavidin sepharose beads (Amersham), 50 mM EDTA (Gibco), 2 M NaCl (Gibco), 2 M NaCl w/1% phosphoric acid (Gibco), microscint-20 (Perkin Elmer).
IC50 determinations are calculated from 10 data points per compound utilizing data produced from a standard 96-well plate assay template. One control compound and seven unknown inhibitors were tested on each plate and each plate was run twice. Typically, compounds were diluted in half-log starting at 100 μM and ending at 3 nM. The control compound was staurosporine. Background was counted in the absence of peptide substrate. Total activity was determined in the presence of peptide substrate. The following protocol was used to determine BTK inhibition.
1) Sample preparation: The test compounds were diluted at half-log increments in assay buffer (imidazole, glycerol-2-phosphate, EGTA, MnCl2, MgCl2, BSA).
2) Bead preparation • a.) rinse beads by centrifuging at 500 g • b.) reconstitute the beads with PBS and EDTA to produce a 20% bead slurry
3) Pre-incubate reaction mix without substrate (assay buffer, DTT, ATP, ^33P ATP) and mix with substrate (assay buffer, DTT, ATP, ^33P ATP, peptide substrate) 30° C. for 15 min.
4) To start assay, pre-incubate 10 μL BTK in enzyme buffer (imidazole, glycerol-2-phosphate, BSA) and 10 μL of test compounds for 10 min at RT.
5) Add 30 μL reaction mixture without or with substrate to BTK and compounds.
6) Incubate 50 μL total assay mix for 30 min at 30° C.
7) Transfer 40 μL of assay to 150 μL bead slurry in filter plate to stop reaction.
8) Wash filter plate after 30 min, with following steps • a. 3 ×250 μL NaCl • b. 3×250 μL NaCl containing 1% phosphoric acid • c. 1×250 μL H2O
9) Dry plate for 1 h at 65° C. or overnight at RT
10) Add 50 μL microscint-20 and count ^33P cpm on scintillation counter.
Calculate percent activity from raw data in cpm percent activity=(sample−bkg)/(total activity−bkg)×100

T1 sequence (Q06187 whole entry): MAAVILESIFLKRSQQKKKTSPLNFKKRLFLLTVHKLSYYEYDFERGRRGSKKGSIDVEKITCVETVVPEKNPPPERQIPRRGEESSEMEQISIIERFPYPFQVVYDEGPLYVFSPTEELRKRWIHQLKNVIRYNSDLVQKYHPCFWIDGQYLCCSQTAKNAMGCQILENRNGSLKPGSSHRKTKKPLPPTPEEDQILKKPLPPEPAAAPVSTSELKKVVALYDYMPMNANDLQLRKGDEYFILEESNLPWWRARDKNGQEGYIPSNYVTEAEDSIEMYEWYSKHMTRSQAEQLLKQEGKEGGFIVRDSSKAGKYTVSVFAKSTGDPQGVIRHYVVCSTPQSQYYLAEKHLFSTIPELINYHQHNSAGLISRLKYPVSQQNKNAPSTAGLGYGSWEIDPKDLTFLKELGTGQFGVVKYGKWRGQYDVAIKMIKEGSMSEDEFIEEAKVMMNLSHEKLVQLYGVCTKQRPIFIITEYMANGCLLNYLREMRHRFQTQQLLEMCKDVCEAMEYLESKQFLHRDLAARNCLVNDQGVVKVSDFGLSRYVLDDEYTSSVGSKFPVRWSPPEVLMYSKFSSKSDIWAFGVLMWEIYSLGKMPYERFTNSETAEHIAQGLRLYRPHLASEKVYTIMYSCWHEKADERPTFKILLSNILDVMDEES

IC50 (Ramos cells): 1.13 µM
IC50 [1]: 0.468 µM
SMILES: Cc1cc(Nc2nn(C(C)C)c(=O)c3cc(N(C)C)ccc23)n[nH]1 [Example F-6, 2-Isopropyl-4-(5-methyl-1H-pyrazol-3-ylamino)-7-dimethylamino-2H-phthalazin-1-one]
